Key:
[1] = biological target: T1, A1 (Homo sapiens, UniProt Q16548); details: cited from earlier work
T1 sequence (Q16548 1-175): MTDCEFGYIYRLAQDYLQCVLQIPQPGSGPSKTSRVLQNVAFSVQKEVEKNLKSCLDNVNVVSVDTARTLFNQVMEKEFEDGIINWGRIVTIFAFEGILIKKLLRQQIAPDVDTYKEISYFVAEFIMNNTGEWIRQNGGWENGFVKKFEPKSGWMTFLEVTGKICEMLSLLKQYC

[2] = biological target: Mcl-1 (Homo sapiens, UniProt Q07820); details: cited from earlier work
[3] = tested on: HeLa cells; experiment: Flow cytometry, subG1-phase cells (apoptosis); format: cell-based, human; details: ABT-737 (3 μM) in Luc siRNA-treated HeLa cells
Procedure: FIG. 13: Flow cytometry of HeLa cancer cell transfected with luc, mcl-1, USP46v1, USP46v4 or USP46 pool siRNA. Cell cycle was determined 72 h after siRNA transfection and 18 h after ABT-737 treatment (3 μM).
FIG. 14: ABT-737-induced subG1 transition in HeLa cells determined 72 h after siRNA transfection and 24 h after ABT-737 treatment. The percentage of cells in the subG1 (<2N) are means+/−SD of duplicate values (A). Mcl-1 endogenous level was also determined in the presence of siRNA targeting either luciferase, Mcl-1 or USP46. Anti-Stat3 antibody was used as loading control (B).
All cell lines used were maintained in their respective medium. All culture media were supplemented with 100 units/ml penicillin and 0.1 mg/ml streptomycin, and cell lines were incubated at 37° C. in a humidified atmosphere containing 5% CO2. For siRNA transfection, siRNA (40 pmol, 72 nM final) were complexed with 2 μl of Oligofectamine (Invitrogen) in Opti-MEM (Invitrogen) and added to 24-well plates prior to cell seeding. In all conditions, Opti-MEM was replaced with appropriate medium 5 hours after transfection. […]
To confirm the effect of USP46 siRNA on the sensitization of cells to ABT-737-induced apoptosis in HeLa cells, the number of subG1-phase cells is quantified which reflect mainly apoptosis. […]

[4] = tested on: Mcl-1 in HCT116 cells; experiment: USP siRNA screening on Mcl-1 half-life with cycloheximide, Western blot; format: cell-based, human; details: confirmation experiment
Procedure: FIG. 1 (FIGS. 1.1, 1.2, 1.3): Schematic representation of Mcl-1 modulation following USP silencing at t=0, 30 min or 1 h of cycloheximide treatment in HCT116 cells. Mcl-1 increase and decrease are respectively presented in blue and green and siRNA toxicity is presented in grey. Absence of color corresponds to absence of any effect. Selected USP for confirmation experiments are highlighted in green (USP5, USP13, USP19, USP21, USP22, USP26, USP28, USP38, USP42 and USP46). SiRNA designed to target pairs of USP are indicated on the right of the table.
For the screening, the indicated amounts of siRNA (40 pmol, 72 nM final) were complexed with 2 μl of Oligofectamine (Invitrogen) in Opti-MEM (Invitrogen) and added to 24-well plates prior to cell seeding. 150 000 HCT116 cells were next plated. Opti-MEM was replaced with appropriate medium 5 hours after transfection. After 72 h of transfection and before harvesting, cells were treated or not with cycloheximide (30 μg/ml) for 30 min or 1 hour or treated with MG132 (30 μM) for 90 min.
Cells were washed once in chilled PBS and harvested by trypsination. Floating and trypsinized cells were pooled and collected by centrifugation. […] Proteins were quantitated using bicinchoninic acid (Sigma-Aldrich) according to manufacturer's instructions. […] Signal was detected using ECL reagent (Amersham) following manufacturer's instructions. […]

Sequence of Mcl-1 (Q07820 whole entry, species assumed): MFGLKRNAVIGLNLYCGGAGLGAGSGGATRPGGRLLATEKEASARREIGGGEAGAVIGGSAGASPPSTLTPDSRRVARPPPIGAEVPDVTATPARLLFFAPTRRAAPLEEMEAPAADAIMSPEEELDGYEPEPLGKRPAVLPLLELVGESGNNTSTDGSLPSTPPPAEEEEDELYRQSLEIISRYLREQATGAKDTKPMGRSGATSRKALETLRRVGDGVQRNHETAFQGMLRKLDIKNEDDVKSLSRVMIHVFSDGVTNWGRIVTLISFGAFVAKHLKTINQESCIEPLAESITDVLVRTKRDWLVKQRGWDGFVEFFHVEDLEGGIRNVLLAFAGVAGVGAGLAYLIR

CN(C)CC[C@H](CSc1ccccc1)Nc1ccc(S(=O)(=O)NC(=O)c2ccc(N3CCN(Cc4ccccc4-c4ccc(Cl)cc4)CC3)cc2)cc1[N+](=O)[O-] [ABT-737]
affinity for A1 [1]: low affinity | affinity for Mcl-1 [2]: low affinity | subG1 cells [3]: 35%±6.6%

C[C@@H]1C[C@@H]([C@H](O)CC2CC(=O)NC(=O)C2)C(=O)[C@@H](C)C1 [cycloheximide]
endogenous Mcl-1 level [4]: significant decrease

— patent publication US20110237644A1, “UBIQUITIN SPECIFIC PROTEASES RESPONSIBLE FOR MCL-1 STABILITY AND USES THEREOF” (Les Laboratoires Servier, priority 2008, published 2011)
